System: poly-I:C-induced cell accumulation in mice airways
Test: Poly-I:C-induced cell accumulation in mice
Assay type: in vivo, A/J mice
Protocol: Specific pathogen-free A/J mice (males, 5 weeks old) were dosed with poly (I:C)-LMW (1 mg/mL, 40 μL) (InvivoGen, San Diego, Calif., USA) intranasally twice daily for 3 days under anaesthasia (3% isoflurane). Test substances were dosed intra-nasally (50 μL in 10% DMSO/isotonic saline vehicle) 2 hr before each poly-I:C treatment. At 24 hr after the last poly-I:C challenge, animals were anesthetized, the trachea was cannulated and bronchial alveolar lavage (BAL) was obtained by instilling into and then withdrawing from the lungs, isotonic saline (100 mL/kg). Total cell numbers in the BALF samples were measured using a haemocytometer under a phase-contrast microscope.
The proportions of alveolar macrophages and neutrophils were determined by FACS analysis using anti-mouse MOMA2-FITC (macrophage) or anti-mouse 7/4-FITC (neutrophil). Cells were suspended in PBS and incubated with anti-MOMA2-FITC (2 μg/mL, Catalogue no SM065F, Acris Antibodies GmbH, Herford, Germany) or anti-7/4-FITC (2 μg/mL, Catalogue no CL050F, Acris Antibodies GmbH, Herford, Germany) for 30 min at 30° C., and then counterstained with propidium iodide (2 μg/mL) to allow exclusion of necrotic cells. The cells were washed with PBS, and transferred to FACS tubes. Samples was set in a flow cytometer (ALTRA II; Beckman Coulter Japan, Tokyo, Japan), and a single-parameter FL2 [PMT2] (FITC) histogram with log x-axis was plotted to illustrate relative intensity of FITC. Data files were stored for subsequent analysis using Kaluza analysis software (ver. 1.2) to calculate the proportion of each cell type.

[1] = 0.002 mg/mL intra-nasal + Poly I:C
[2] = 0.02 mg/mL intra-nasal + Poly I:C
[3] = 0.2 mg/mL intra-nasal + Poly I:C

`COCCOCCOCC#Cc1cccc2nc(Cn3nc(-c4cc(O)cc(F)c4)c4c(N)ncnc43)n(Cc3ccccc3C(F)(F)F)c(=O)c12` [Compound (I), 2-((4-Amino-3-(3-fluoro-5-hydroxyphenyl)-1H-pyrazolo[3,4-d]pyrimidin-1-yl)methyl)-5-(3-(2-(2-methoxyethoxy)ethoxy)prop-1-yn-1-yl)-3-(2-(trifluoromethyl)benzyl)quinazolin-4(3H)-one] was tested, and the Cell numbers in BALF, Macrophages, % inhibition [1] was 49%, the “Cell numbers in BALF, Neutrophils, % inhibition” value [1] was 0.3 (43) % and the “Cell numbers in BALF, Macrophages, % inhibition” value [2] was 0.3 (69) %. For the same compound, the Cell numbers in BALF, Neutrophils, % inhibition [2] was 65%, the “Cell numbers in BALF, Macrophages, % inhibition” value [3] was 0.3 (79) % and the “Cell numbers in BALF, Neutrophils, % inhibition” value [3] was 0.2 (77) %. The “potency versus compound A, poly-I:C-induced macrophage and neutrophil accumulation into BALF” value (direct comparison, FIG. 1) was “significantly greater potency than compound A”.
